Here are results for 7 compounds from ChEMBL document CHEMBL1201862, “PubChem BioAssay data set” (2004).

The nature of assay [1]: ATP-based viability loss in HEK293T cells – cell-based, CellTiter-Glo luminescence, dry powder, set 2, cytotoxicity control, dose response (AID 720595). It is filed as functional. To be noted: HEK293. (Cellular ATP, detected with luciferase, serves as a proxy for viable cell number.)
Another assay addresses Hexokinase HKDC1 (Homo sapiens, UniProt Q2TB90). Kind of assay: inhibition of HKDC1 glucose phosphorylation – biochemical, W721R variant, dose response (AID 504729). It is filed as functional.
The test system of assay [2] is BJ. Kind of assay: cells. It is filed as functional, cell-based. To be noted: Homo sapiens.
Assay [3] is described as follows: general mammalian cell viability loss – activator set, cherry-pick, cytotoxicity control for miR-122 modulator project, dose response (AID 720690).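 Also: HEK293T human cells scored for general mammalian cytotoxicity.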 Type of assay: functional, cell-based.
The target in a further assay is T1, CAAX prenyl protease 1 (Saccharomyces cerevisiae S288c, UniProt P47154).
T1 sequence (P47154 whole entry): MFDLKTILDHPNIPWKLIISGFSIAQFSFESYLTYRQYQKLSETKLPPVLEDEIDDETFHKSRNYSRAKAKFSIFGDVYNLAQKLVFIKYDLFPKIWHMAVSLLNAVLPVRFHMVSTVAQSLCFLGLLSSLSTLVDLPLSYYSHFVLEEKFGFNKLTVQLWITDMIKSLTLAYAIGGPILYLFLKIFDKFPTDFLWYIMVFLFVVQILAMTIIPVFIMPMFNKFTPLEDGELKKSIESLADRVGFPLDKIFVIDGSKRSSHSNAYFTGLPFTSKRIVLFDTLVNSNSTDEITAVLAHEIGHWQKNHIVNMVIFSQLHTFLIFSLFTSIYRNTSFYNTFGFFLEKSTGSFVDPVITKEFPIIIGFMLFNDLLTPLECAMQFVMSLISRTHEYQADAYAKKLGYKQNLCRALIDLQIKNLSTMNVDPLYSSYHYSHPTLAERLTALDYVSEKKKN
Kind of assay: yeast CAAX protease Ste24 inhibition – biochemical, S. cerevisiae, plate reader, cherry-pick, dose response (AID 488815).

Assay [4] relates to BJ. Kind of assay: growth inhibition of engineered Ras-driven BJ cells – cell-based, alamar blue fluorescence, cherrypicked samples, dose response (AID 2631).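 Also: confirmatory dose-response assay in RAS-dependent BJ fibroblasts engineered with TERT, LT and ST, with cytotoxicity read by fluorescence.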 It is filed as functional. To be noted: Homo sapiens. On the technique in general: The colour change of resazurin is a common sign of viable cells or microbes.
Assay [5] deals with T2, Ubiquitin-conjugating enzyme E2 N (Homo sapiens, UniProt P61088).
T2 sequence (P61088 whole entry): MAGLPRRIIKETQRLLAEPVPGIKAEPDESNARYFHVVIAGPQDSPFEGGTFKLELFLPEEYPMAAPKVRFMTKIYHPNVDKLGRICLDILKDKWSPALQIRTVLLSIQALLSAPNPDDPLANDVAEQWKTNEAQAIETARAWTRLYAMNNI
Type of assay: functional.

Assay [6] has as its target Homeodomain-interacting protein kinase 2 (Homo sapiens, UniProt Q9H2X6). It is filed as functional.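 Also: measured within a kinome-wide kinase profiling panel, HIPK2 being one panel member.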
In assay [7] the target is T3, Sentrin-specific protease 8 (Homo sapiens, UniProt Q96LD8).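 Also: luminescence read-out of SENP8 inhibition, dose-response confirmation following an ultra-high-throughput screen.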
T3 sequence (Q96LD8 whole entry): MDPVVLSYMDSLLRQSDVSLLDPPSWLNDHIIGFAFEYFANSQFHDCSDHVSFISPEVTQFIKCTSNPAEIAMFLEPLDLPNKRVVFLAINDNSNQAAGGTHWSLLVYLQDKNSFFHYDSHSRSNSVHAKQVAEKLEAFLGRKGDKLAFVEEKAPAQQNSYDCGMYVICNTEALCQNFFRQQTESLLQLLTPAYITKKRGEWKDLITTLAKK
Type of assay: functional.

Another assay concerns the target T4, Caspase-3 (Homo sapiens, UniProt P42574).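 Also: Dose-response selectivity test against caspase-3 for candidate inhibitors of sentrin-specific proteases (SENPs).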
T4 sequence (P42574 whole entry): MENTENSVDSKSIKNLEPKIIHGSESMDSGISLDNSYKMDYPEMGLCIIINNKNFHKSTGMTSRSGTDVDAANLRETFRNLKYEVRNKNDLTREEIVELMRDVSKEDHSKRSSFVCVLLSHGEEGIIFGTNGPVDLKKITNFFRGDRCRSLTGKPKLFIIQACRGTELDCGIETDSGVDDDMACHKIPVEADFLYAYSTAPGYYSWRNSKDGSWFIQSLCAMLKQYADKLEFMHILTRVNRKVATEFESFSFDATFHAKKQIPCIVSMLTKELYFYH
It is filed as functional.

For assay [8], the target named is T5, Mannose-6-phosphate isomerase (Homo sapiens, UniProt P34949).
T5 sequence (P34949 whole entry): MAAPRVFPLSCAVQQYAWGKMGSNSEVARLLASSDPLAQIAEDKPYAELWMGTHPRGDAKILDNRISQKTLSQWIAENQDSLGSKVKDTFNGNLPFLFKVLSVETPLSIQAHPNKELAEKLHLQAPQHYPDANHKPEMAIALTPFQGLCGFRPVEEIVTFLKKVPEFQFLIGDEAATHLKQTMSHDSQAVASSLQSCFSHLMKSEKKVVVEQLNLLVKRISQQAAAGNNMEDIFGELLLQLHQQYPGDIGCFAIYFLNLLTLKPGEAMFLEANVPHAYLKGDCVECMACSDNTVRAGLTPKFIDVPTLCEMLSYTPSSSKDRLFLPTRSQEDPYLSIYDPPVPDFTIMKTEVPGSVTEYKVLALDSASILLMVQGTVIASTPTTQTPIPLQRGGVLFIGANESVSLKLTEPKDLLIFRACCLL
Kind of assay: MPI enzyme activity inhibition – biochemical, fluorescence intensity, coupled assay, primary screen (AID 1209).

SMILES strings stand for the structures. Activity calls are given as the source filed them.

Broadly, the AC50 is the concentration at which the activity in the assay is half-maximal. For orientation: IC50 means the concentration that inhibits the measured activity by half. Usually EC50 stands for the concentration that produces a half-maximal response. Usually Ki stands for a dissociation constant, usually derived from enzyme kinetics or from competition with a known ligand. Usually pKi stands for the Ki on a negative log10 scale, so that one unit is a factor of ten. High values mean a small Ki, low ones a large Ki.

Sequence of Homeodomain-interacting protein kinase 2 (Q9H2X6 whole entry): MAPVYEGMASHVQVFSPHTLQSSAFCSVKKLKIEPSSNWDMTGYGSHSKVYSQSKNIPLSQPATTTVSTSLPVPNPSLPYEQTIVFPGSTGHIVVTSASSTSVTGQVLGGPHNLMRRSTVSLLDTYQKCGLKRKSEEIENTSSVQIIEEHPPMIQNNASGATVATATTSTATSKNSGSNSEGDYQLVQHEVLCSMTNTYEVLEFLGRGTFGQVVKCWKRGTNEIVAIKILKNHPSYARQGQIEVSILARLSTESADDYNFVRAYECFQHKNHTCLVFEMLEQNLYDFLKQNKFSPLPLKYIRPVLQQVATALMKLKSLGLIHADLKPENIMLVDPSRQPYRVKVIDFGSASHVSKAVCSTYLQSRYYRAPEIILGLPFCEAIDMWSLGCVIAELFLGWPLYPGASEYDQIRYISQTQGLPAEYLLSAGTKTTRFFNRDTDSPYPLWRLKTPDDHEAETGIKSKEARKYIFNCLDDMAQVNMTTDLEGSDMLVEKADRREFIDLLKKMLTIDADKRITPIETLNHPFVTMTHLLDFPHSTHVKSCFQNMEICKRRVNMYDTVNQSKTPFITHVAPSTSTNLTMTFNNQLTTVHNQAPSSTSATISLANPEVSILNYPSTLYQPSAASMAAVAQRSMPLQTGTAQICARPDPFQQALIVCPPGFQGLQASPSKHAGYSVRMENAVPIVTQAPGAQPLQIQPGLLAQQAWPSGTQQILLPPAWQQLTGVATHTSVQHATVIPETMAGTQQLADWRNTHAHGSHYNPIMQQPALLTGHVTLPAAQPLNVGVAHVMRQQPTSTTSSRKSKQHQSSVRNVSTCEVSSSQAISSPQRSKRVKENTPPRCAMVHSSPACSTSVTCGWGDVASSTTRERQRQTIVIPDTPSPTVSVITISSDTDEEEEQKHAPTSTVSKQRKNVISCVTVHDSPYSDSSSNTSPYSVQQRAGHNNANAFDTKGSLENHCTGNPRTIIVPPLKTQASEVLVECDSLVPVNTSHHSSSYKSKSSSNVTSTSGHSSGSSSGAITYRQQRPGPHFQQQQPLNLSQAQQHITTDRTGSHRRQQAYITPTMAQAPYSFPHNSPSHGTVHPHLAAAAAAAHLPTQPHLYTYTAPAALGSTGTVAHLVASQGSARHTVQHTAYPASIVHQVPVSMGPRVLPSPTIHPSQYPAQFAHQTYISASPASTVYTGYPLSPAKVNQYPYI
Sequence of Hexokinase HKDC1 (Q2TB90 whole entry): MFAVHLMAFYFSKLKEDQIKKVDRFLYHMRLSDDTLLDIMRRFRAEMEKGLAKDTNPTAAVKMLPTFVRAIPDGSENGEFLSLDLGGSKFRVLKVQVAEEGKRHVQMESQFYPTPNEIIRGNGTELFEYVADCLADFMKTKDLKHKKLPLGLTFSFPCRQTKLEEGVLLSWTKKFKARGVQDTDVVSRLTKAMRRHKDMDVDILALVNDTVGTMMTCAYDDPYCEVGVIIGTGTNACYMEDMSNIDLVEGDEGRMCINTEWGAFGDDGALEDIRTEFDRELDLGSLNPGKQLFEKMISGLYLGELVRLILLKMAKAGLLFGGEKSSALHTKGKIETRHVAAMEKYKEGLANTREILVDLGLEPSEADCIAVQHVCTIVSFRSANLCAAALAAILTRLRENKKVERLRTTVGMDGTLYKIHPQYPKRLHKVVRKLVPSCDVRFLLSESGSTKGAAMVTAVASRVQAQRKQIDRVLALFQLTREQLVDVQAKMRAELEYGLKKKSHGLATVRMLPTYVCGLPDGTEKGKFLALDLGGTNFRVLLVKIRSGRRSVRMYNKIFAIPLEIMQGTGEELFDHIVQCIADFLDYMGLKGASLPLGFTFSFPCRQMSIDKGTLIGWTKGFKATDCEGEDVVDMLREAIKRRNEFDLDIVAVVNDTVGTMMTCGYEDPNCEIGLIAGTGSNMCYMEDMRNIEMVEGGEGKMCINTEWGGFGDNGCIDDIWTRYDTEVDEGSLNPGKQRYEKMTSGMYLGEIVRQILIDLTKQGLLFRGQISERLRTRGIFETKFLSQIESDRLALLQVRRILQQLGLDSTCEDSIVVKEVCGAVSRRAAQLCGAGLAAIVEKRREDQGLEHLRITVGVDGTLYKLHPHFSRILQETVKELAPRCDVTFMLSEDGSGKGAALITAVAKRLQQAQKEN

Consider `CC(C)CC(=O)NC(c1cccs1)c1ccc2cccnc2c1O` (configuration not stated), for which, in assay [1], the AC50 is 1.75 µM (active). Take `CCOC(=O)c1ccc(NC2=CC(=O)C(=O)c3ccccc32)cc1`: at Hexokinase HKDC1, the IC50 was 43.9 µM (inactive). Consider `OC(CNCCC1C=Nc2ccccc21)Cn1c2ccc(Cl)cc2c2cc(Cl)ccc21` (configuration not stated), for which the half-maximal effective concentration (EC50) was > 75 µM (not active) in the assay on BJ [2] and 4.36 µM (inconclusive) with BJ [4]. The AC50 was 6.52 µM (active) in assay [3] and 4.42 µM (active) at CAAX prenyl protease 1. For the compound `CCCCCCCCCCCCCCCC[N+](C)(C)C`, in assay [5], the IC50 was > 20 µM (inactive). `NC1CCC(Nc2nc(Cl)cc(-c3c[nH]c4ncccc34)n2)CC1` (configuration not stated): in [6], the Ki was 0.0398 µM (active) and the pKi is on record as 7.4.

Take `COc1ccc(C(=O)c2nccc3cc(OC)c(OC)cc23)cc1OC`: the IC50 in assay [7] is 2.47 µM (active); at Caspase-3, 8.21 µM (active). `Cc1ccccc1-c1cc2c(nn1)-c1ccccc1C2=O`: in assay [8], the IC50 is reported as > 50 µM (not active).
